In patent publication US20240423933A1, “DRUGS FOR TREATING NEURODEVELOPMENTAL DISORDERS” (President and Fellows of Harvard College, priority 2021, published 2024):
“Also recorded” adds a separate entry of the source. Where a SMILES comes first, the peptide text is derived from it. [ ]: non-standard residue; d: D form. αMeP = C[C@@]1(C(=O)O)CCCN1

What was measured:
[1] = tested on: MeCP2 knockdown Xenopus laevis tadpoles; assay: Tadpole viability in the MeCP2 knockdown model; type: in vivo; conditions: for tadpole viability: MeCP2 knockdown model, FIGS. 6A-6B; for animals survived until Day 10: MeCP2 knockdown tadpoles, no vehicle-treated animal survived beyond Day 6
Source text: 100% of MeCP2 knockdown animals treated with vorinostat survived until Day 10; over 50% of MeCP2 knockdown animals treated with trofinetide survived until Day 10. Conversely, none of the MeCP2 knockdown animals treated with vehicle survived beyond Day 6.

[2] = tested on: MeCP2-knockdown (MeCP2-/Y) mice; assay: MeCP2 knockdown mouse study, treatment after onset of symptoms (oral vorinostat); type: in vivo; conditions: for survival after 3 weeks of treatment: MeCP2-knockdown animals; for colocalization of acetylated a-tubulin with neuronal staining in the colon: bIII- and acetylated alpha-tubulin staining; for colon vacuolization and neutrophil infiltrate (histology): colon sections of MeCP2-knockdown animals; for overall mobility scores (mobility, gait, hindlimb clasping) / diarrhea scores: relative to vehicle-treated MeCP2-knockdown animals; for overall mobility scores (mobility, gait, hindlimb clasping): FIG. 9B; for diarrhea scores: FIG. 9C
Description: Mice were treated with either trofinetide or vorinostat, and change in animal weight (g) and Cumulative Severity Score were assessed.
MeCP2-knockdown (MeCP2-/Y) mice were dosed approximately one week after the onset of symptoms with an oral formulation of vorinostat.
Additionally, the overall mobility scores (based on mobility, gait, and hindlimb clasping) and the diarrhea scores were improved for MeCP2-knockdown animals treated with vorinostat and trofinetide, relative to vehicle-treated MeCP2-knockdown animals (FIG. 9B and 9C, respectively). […] There was also an overall increase of hyperacetylated a-tubulin in bronchioles of MeCP2-Vy animals that vorinostat restored (FIG. 9E). Finally, vorinostat treatment rescued the disrupted a-tubulin acetylation observed in femoral muscle sections (FIG. 9F).
Initial histological analysis of the colon indicated a greater degree of vacuolization and heightened neutrophil infiltrate in MeCP2-knockdown animals, which vorinostat and trofinetide reversed. […] Vorinostat also normalized the ratio of acetylated alpha-tubulin to bIII-tubulin (FIG. 9G).

[3] = tested on: MeCP2-knockdown (MeCP2−/Y) mice; assay: MeCP2 knockdown mouse study, daily i.p. treatment from p31; type: in vivo; conditions: vorinostat 50 mg/kg i.p. daily, relative to vehicle-treated MeCP2-knockdown mice
Description: Wild-type and MeCP2-knockdown (MeCP2^−/Y) mice (a Rett mouse model) were treated starting at day 31 post-partum (p31) via daily intraperitoneal (i.p.) administration of trofinetide (100 mg/kg) or vorinostat (50 mg/kg) until day 51 of age (FIG. 7A). Behavorial assays were performed at days 35-39 and days 49-53, before sacrificing the mice and harvesting organs at day 54.

[4] = tested on: MeCP2 knockdown Xenopus laevis tadpoles; assay: alpha-tubulin acetylation and cilia in tissues of MeCP2 knockdown tadpoles; type: in vivo
Description: Xenopus laevis tadpoles having an MeCP2 knockdown were generated using CRISPR-Cas9 technology. Xenopus embryos were fertilized and maintained at 14° C. until the 4-cell stage. Each cell was injected with ˜2 nL ribonucleoprotein (a mixture of sgRNAs targeting the MeCP2 gene and Cas9 enzyme). No adverse effects to development were observed, as all embryos developed to the swimming tadpole stages (Nieuwkoop-Faber stages 45-50) with no apparent loss of viability or morphological defect.
Specifically, tadpole tissues were assessed for alpha-tubulin acetylation and bidirectional shifts in acetylation patterns were observed depending on the tissue type.

Naïve C57BL6 mice = assay: Elevated Plus Maze test; type: in vivo, mouse; conditions: FIGS. 11A-11B
[5] = tested on: MeCP2 knockdown Xenopus laevis tadpoles; assay: Seizure Score in MeCP2 knockdown tadpoles; type: in vivo; conditions: MeCP2 knockdown tadpoles treated Day 1 to Day 6, relative to vehicle
Source text: Seizure Score data for wild-type and MeCP2 knockdown was collected for Xenopus laevis tadpoles treated with drug (trofinetide or vorinostat) or vehicle from Day 1 to Day 6, after which they were placed back in medium.

[6] = tested on: MeCP2 knockdown Xenopus laevis; assay: Tongue thickness and GI tract ib4+ staining in MeCP2 knockdown tadpoles; type: in vivo
Source text: Treatment with vorinostat in Xenopus laevis also had impacts on GI tract inflammation and nociceptive innervation. The role of MeCP2 knockdown in GI tract inflammation and nociceptive innervation by staining for isolectin B4-positive (ib4+) cells.

SMILES: O=C(CCCCCCC(=O)Nc1ccccc1)NO [vorinostat, N′-hydroxy-N-phenyloctanediamide]
- tadpole viability [1]: improves Xenopus laevis tadpole viability
- tadpole viability ([1]; listed as Vorinostat): improve Xenopus laevis tadpole viability
- animals survived until Day 10 [1]: 100%
- hyperacetylated a-tubulin in bronchioles ([2]; FIG. 9E): restored
- a-tubulin acetylation in femoral muscle sections ([2]; FIG. 9F): rescued
- survival after 3 weeks of treatment [2]: 100%
- colocalization of acetylated a-tubulin with neuronal staining in the colon [2]: normalized
- colon vacuolization and neutrophil infiltrate (histology) [2]: reversed
- ratio of acetylated alpha-tubulin to bIII-tubulin ([2]; colon, FIG. 9G): normalized
- breathing (score) ([2]; compared to trofinetide and vehicle treatments, FIG. 9D): significantly improved
- performance in EPM and Y mazes ([2]; oral vorinostat 50 mg/kg): increased performance
- weight gain ([2]; oral vorinostat 50 mg/kg): ameliorated weight gain
- Cumulative Severity Score / symptom severity score ([2]; oral vorinostat 50 mg/kg, mice treated at 35 days of age after onset of severe symptoms, FIG. 9A): more effective than trofinetide; also recorded: prevented significant worsening
- overall mobility scores (mobility, gait, hindlimb clasping) [2]: improved
- diarrhea scores [2]: improved
- neurological function (elevated plus maze and spatial novelty Y-maze performance) ([3]; FIG. 7D): improved neurological function
- diarrhea score ([3]; FIG. 7E): improved diarrhea score
- a-tubulin hyperacetylation in the GI tract ([4]; FIG. 2C): reversed that hyperacetylation
- hyper-acetylation in olfactory multi-ciliated cells ([4]; microtubules and alpha-tubulin): reverses hyper-acetylation
- effects related to microtubules and cilia length ([4]; nostril multiciliated cells, FIGS. 2A-2B): reversed those effects
- behavior in anxiety, activity and novelty seeking (Naïve C57BL6 mice): restored behavior in anxiety, activity and novelty seeking; also recorded: restores naïve C57BL6 behavior
- seizures (Seizure Score) [5]: reduced seizures
- tongue thickness ([6]; MeCP2 knockdown animals, FIG. 3A): restored normal tongue thickness; also recorded: restores normal tongue vertical thickness
- ib4+ expression in the GI tract ([6]; MeCP2 knockdown tadpoles, isolectin B4 staining, FIG. 3B): reversed that ib4+ expression; also recorded: restores normal ib4+ expression

SMILES: C[C@@]1(C(=O)N[C@@H](CCC(=O)O)C(=O)O)CCCN1C(=O)CN [trofinetide, (2S)-2-[[(2S)-1-(2-aminoacetyl)-2-methylpyrrolidine-2-carbonyl]amino]pentanedioic acid] (H-Gly-[αMeP]-Glu-OH)
- animals survived until Day 10 [1]: over 50%
- survival after 3 weeks of treatment [2]: about 60%
- colocalization of acetylated a-tubulin with neuronal staining in the colon [2]: normalized
- colon vacuolization and neutrophil infiltrate (histology) [2]: reversed
- overall mobility scores (mobility, gait, hindlimb clasping) [2]: improved
- diarrhea scores [2]: improved
- seizures (Seizure Score) [5]: reduced seizures
